From ChEMBL document CHEMBL1201862, “PubChem BioAssay data set” (2004)
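Cultured in 96-well plates, cells were exposed to test compound for 48 hours across five concentrations. The concentration for 50% growth inhibition is given as GI50.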 Activity calls are given as the source filed them. Cut-off read from the data, not from the text of the source: active = GI50 up to about 1.1 µM and inactive = higher.

Tests used:
Assay in all cases: NCI anticancer screen, dose series, 48 h
[1] = tested on: 786-0
[2] = tested on: A549
[3] = tested on: CAKI-1
[4] = tested on: COLO 205
[5] = tested on: EKVX
[6] = tested on: HCC 2998
[7] = tested on: HT-29
[8] = tested on: IGROV-1
[9] = tested on: KM12
[10] = tested on: M14
[11] = tested on: MDA-MB-231
[12] = tested on: NCI-H226
[13] = tested on: NCI-H522
[14] = tested on: OVCAR-8
[15] = tested on: SK-MEL-28
[16] = tested on: SK-MEL-2
[17] = tested on: SK-MEL-5
[18] = tested on: SK-OV-3
[19] = tested on: UACC-257
[20] = tested on: UO-31

Measured: GI50

O=[N+]([O-])C(=C(Nc1ccccc1)Nc1ccccc1)C(Cl)=C(Cl)Cl
inactive: [1] 15.8 µM | [2] 17.7 µM | [3] 17.1 µM | [4] 17.5 µM | [5] 15.7 µM | [6] 19.5 µM | [7] 16.4 µM | [8] 12.9 µM | [9] 24.9 µM | [10] 18.2 µM | [11] 17.3 µM | [12] 19 µM | [13] 21.4 µM | [14] 22.9 µM | [15] 18.7 µM | [16] 13.1 µM | [17] 13.8 µM | [18] 29 µM | [19] 14.9 µM | [20] 24.5 µM

Cc1cc(N(CCOS(C)(=O)=O)CCOS(C)(=O)=O)ccc1/C=N/c1ccc(-c2csc(-c3ccc(Br)cc3)n2)cc1
inactive: [1] 1.84 µM | [2] 2.65 µM | [4] 1.22 µM | [5] 6.24 µM | [6] 6.58 µM | [7] 7.06 µM | [8] 5.43 µM | [9] 13.3 µM | [10] 9.08 µM | [11] 15.5 µM | [12] 12.6 µM | [14] 12.9 µM | [15] 31.2 µM | [16] 24.7 µM | [17] 14.2 µM | [18] 1.98 µM | [19] 18.9 µM | [20] 10.2 µM
active: [3] 0.285 µM | [13] 0.8 µM

COc1cc(/C=C/C(=O)Oc2ccccc2)ccc1C(=O)O/C=C/c1ccccc1
inactive: [1] > 100 µM | [2] > 100 µM | [3] > 100 µM | [4] > 100 µM | [5] > 100 µM | [6] > 100 µM | [7] > 100 µM | [8] > 100 µM | [9] > 100 µM | [10] > 100 µM | [11] > 100 µM | [12] > 100 µM | [13] > 100 µM | [14] > 100 µM | [15] > 100 µM | [16] > 100 µM | [17] > 100 µM | [18] > 100 µM | [19] > 100 µM | [20] > 100 µM

C/C(=N\NC(=O)Nc1ccccc1Cl)c1ccc(O)cc1
inactive: [1] > 100 µM | [2] > 100 µM | [3] > 100 µM | [4] > 100 µM | [5] > 100 µM | [6] > 100 µM | [7] > 100 µM | [8] > 100 µM | [9] > 100 µM | [10] > 100 µM | [11] > 100 µM | [12] > 100 µM | [13] > 100 µM | [14] > 100 µM | [15] > 100 µM | [16] > 100 µM | [17] > 100 µM | [18] > 100 µM | [19] > 100 µM | [20] > 100 µM

C[C@]12CC[C@H]3[C@@H](CC=C4C[C@@H](O)CC[C@@]43C)[C@@H]1C/C(=C\c1ccncc1)[C@@H]2O
inactive: [1] 21.1 µM | [2] 19.7 µM | [3] 18.1 µM | [4] 10.6 µM | [5] 14.8 µM | [6] 31.8 µM | [7] 20.9 µM | [8] 21.8 µM | [9] 15.9 µM | [10] 16.5 µM | [11] 28.8 µM | [12] 17.7 µM | [13] 16.3 µM | [14] 15 µM | [15] 18.1 µM | [16] 21.1 µM | [17] 8.51 µM | [18] 28.3 µM | [19] 17.3 µM | [20] 27.1 µM
